Several values for one entry are separate records, joined by “and”; a condition that tells them apart may be missing. Equal values may be shown once. Toxic doses and inconclusive results are not listed.
Tested on: L1210 leukemia ip in BDF1 mice, survival T/C
Assay: NCI In Vivo Anticancer Drug Screen. Data for tumor model L1210 Leukemia (intraperitoneal) in B6D2F1 (BDF1) mice
Conditions: endpoint: mean survival time, higher = longer survival
Method in brief: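 Value reflects the ratio of survival in compound-treated mice to survival in vehicle-treated controls, with both groups carrying the same transplanted tumor.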

[1] = dose: 25.0 mg/kg/injection, schedule: Q01DX009 (ip), vehicle: Klucel (hydroxypropylcellulose) (HPC)
[2] = dose: 50.0 mg/kg/injection, schedule: Q01DX009 (ip), vehicle: Klucel (hydroxypropylcellulose) (HPC)
[3] = dose: 100.0 mg/kg/injection, schedule: Q01DX001 (ip), vehicle: saline
[4] = dose: 200.0 mg/kg/injection, schedule: Q01DX001 (ip), vehicle: saline
[5] = dose: 400.0 mg/kg/injection, schedule: Q01DX001 (ip), vehicle: saline
[6] = dose: 100.0 mg/kg/injection, schedule: Q01DX009 (ip), vehicle: Klucel (hydroxypropylcellulose) (HPC)
[7] = dose: 200.0 mg/kg/injection, schedule: Q01DX009 (ip), vehicle: Klucel (hydroxypropylcellulose) (HPC)
[8] = dose: 400.0 mg/kg/injection, schedule: Q01DX009 (ip), vehicle: Klucel (hydroxypropylcellulose) (HPC)
[9] = dose: 100.0 mg/kg/injection, schedule: Q01DX001 (ip), vehicle: carboxymethylcellulose (CMC)
[10] = dose: 200.0 mg/kg/injection, schedule: Q01DX001 (ip), vehicle: carboxymethylcellulose (CMC)
[11] = dose: 400.0 mg/kg/injection, schedule: Q01DX001 (ip), vehicle: carboxymethylcellulose (CMC)
[12] = dose: 50.0 mg/kg/injection, schedule: Q01DX001 (ip), vehicle: saline
[13] = dose: 100.0 mg/kg/injection, schedule: Q01DX009 (ip), vehicle: saline
[14] = dose: 200.0 mg/kg/injection, schedule: Q01DX009 (ip), vehicle: saline
[15] = dose: 400.0 mg/kg/injection, schedule: Q01DX009 (ip), vehicle: saline
[16] = dose: 100.0 mg/kg/injection, schedule: Q04DX003 (ip), vehicle: saline
[17] = dose: 200.0 mg/kg/injection, schedule: Q04DX003 (ip), vehicle: saline
[18] = dose: 400.0 mg/kg/injection, schedule: Q04DX003 (ip), vehicle: saline

For `O=c1oc(-c2ccccc2)nc2c(Cl)ccc(Cl)c12`, the T/C [1] was 110 % of control, the T/C [2] was 105 % of control and the T/C (dose: 75.0 mg/kg/injection, schedule: Q01DX009 (ip), vehicle: Klucel (hydroxypropylcellulose) (HPC)) was 102 % of control.

In the case of `CC(=O)c1cc2c(Br)cccc2oc1=O`, the T/C [3] is reported as 91 % of control, the T/C [4] is reported as 98 % of control and the T/C [5] is reported as 95 % of control.

For `COc1ccc([N+](=O)[O-])cc1NC(=O)COc1cc(Cl)c(Cl)cc1Cl`, the T/C [6] was 94 % of control, the T/C [7] was 108 % of control and the T/C [8] was 94 % of control.

In the case of `O=C(Cl)OC12CC3CC(CC(C3)C1)C2`, the T/C (dose: 100.0 mg/kg/injection, schedule: Q01DX001 (ip), vehicle: Klucel (hydroxypropylcellulose) (HPC)) is reported as 95 % of control, the T/C (dose: 100.0 mg/kg/injection, schedule: Q01DX009 (ip), vehicle: other) is reported as 105 % of control and the T/C (dose: 200.0 mg/kg/injection, schedule: Q01DX001 (ip), vehicle: Klucel (hydroxypropylcellulose) (HPC)) is reported as 97 % of control. For the same compound, the T/C (dose: 200.0 mg/kg/injection, schedule: Q01DX009 (ip), vehicle: other) was 105 % of control, the T/C (dose: 400.0 mg/kg/injection, schedule: Q01DX001 (ip), vehicle: Klucel (hydroxypropylcellulose) (HPC)) was 100 % of control and the T/C (dose: 400.0 mg/kg/injection, schedule: Q01DX009 (ip), vehicle: other) was 105 % of control.

In the case of `Cc1ccc(N=Cc2cc(Cl)cc(Cl)c2OC(=O)c2ccccc2)cc1Cl`, the T/C (dose: 100.0 mg/kg/injection, schedule: Q04DX002 (ip), vehicle: Klucel (hydroxypropylcellulose) (HPC)) is reported as 94 % of control, the T/C (dose: 200.0 mg/kg/injection, schedule: Q04DX002 (ip), vehicle: Klucel (hydroxypropylcellulose) (HPC)) is reported as 111 % of control and the T/C (dose: 400.0 mg/kg/injection, schedule: Q04DX002 (ip), vehicle: Klucel (hydroxypropylcellulose) (HPC)) is reported as 97 % of control.

For `CCCC(C)(C)C(=O)Nc1cccc(O)c1`, the T/C (dose: 100.0 mg/kg/injection, schedule: Q04DX003 (ip), vehicle: saline with Tween-80) was 95 % of control, the T/C (dose: 200.0 mg/kg/injection, schedule: Q04DX003 (ip), vehicle: saline with Tween-80) was 95 % of control and the T/C (dose: 400.0 mg/kg/injection, schedule: Q04DX003 (ip), vehicle: saline with Tween-80) was 92 % of control.

`Cc1ccnc(NC(C#N)c2ccccc2)c1` (configuration not stated) was tested, and the T/C (dose: 12.5 mg/kg/injection, schedule: Q01DX009 (ip), vehicle: saline with Tween-80) was 93 % of control, the T/C (dose: 25.0 mg/kg/injection, schedule: Q01DX009 (ip), vehicle: saline with Tween-80) was 97 % of control and the T/C (dose: 50.0 mg/kg/injection, schedule: Q01DX009 (ip), vehicle: saline with Tween-80) was 93 % of control and 100 % of control.

`Cc1cc(OCCOC(=O)Nc2ccccc2F)ccc1Cl` was tested, and the T/C [6] was 107 % of control, the T/C [7] was 102 % of control and the T/C [8] was 112 % of control.

`CCOP(=O)(Nc1ccc2oc(=O)c3ccccc3c2c1)OCC` was tested, and the T/C (dose: 50.0 mg/kg/injection, schedule: Q01DX001 (ip), vehicle: carboxymethylcellulose (CMC)) was 100 % of control, the T/C [9] was 100 % of control and the T/C [10] was 110 % of control. The T/C [11] was 97 % of control.

For `CCCC(CCC)(S(=O)(=O)CC)S(=O)(=O)CC`, the T/C [9] was 97 % of control, the T/C [10] was 97 % of control and the T/C [11] was 92 % of control.

`CCOc1ccccc1NC(=O)c1ccc(Cl)cc1Cl` was tested, and the T/C [2] was 92 % of control, the T/C [6] was 92 % of control and the T/C (dose: 100.0 mg/kg/injection, schedule: Q04DX003 (ip), vehicle: Klucel (hydroxypropylcellulose) (HPC)) was 89 % of control. For the same compound, the T/C [7] was 86 % of control.

In the case of `ClC1C2c3ccccc3C(C1Cl)[n+]1ccccc12` (configuration not stated), the T/C (dose: 6.25 mg/kg/injection, schedule: Q01DX009 (ip), vehicle: Klucel (hydroxypropylcellulose) (HPC)) is reported as 109 % of control, the T/C (dose: 12.5 mg/kg/injection, schedule: Q01DX009 (ip), vehicle: Klucel (hydroxypropylcellulose) (HPC)) is reported as 98 % of control and the T/C [1] is reported as 94 % of control. For the same compound, the T/C (dose: 35.0 mg/kg/injection, schedule: Q01DX009 (ip), vehicle: Klucel (hydroxypropylcellulose) (HPC)) was 95 % of control.

For `COC(C)CSP(SCC(C)OC)SCC(C)OC` (configuration not stated), the T/C [1] was 96 % of control, the T/C [2] was 99 % of control and the T/C [6] was 99 % of control.

`Cc1nc2c(c(=O)[nH]1)OCN(C)C2` was tested, and the T/C [12] was 104 % of control, the T/C [3] was 101 % of control and the T/C [4] was 109 % of control. For the same compound, the T/C [5] was 122 % of control.

For `Nc1nc2ncc(NCc3ccc(C(=O)NC(CCC(=O)O)C(=O)O)cc3)nc2c(=O)[nH]1` (configuration not stated), the T/C [3] was 92 % of control, the T/C [13] was 103 % of control and the T/C (dose: 100.0 mg/kg/injection, schedule: Q04DX002 (ip), vehicle: saline) was 96 % of control and 100 % of control. For the same compound, the T/C [4] was 91 % of control, the T/C [14] was 100 % of control and the T/C (dose: 200.0 mg/kg/injection, schedule: Q04DX002 (ip), vehicle: saline) was 100 % of control and 102 % of control. The T/C [5] was 100 % of control, the T/C [15] was 96 % of control and the T/C (dose: 400.0 mg/kg/injection, schedule: Q04DX002 (ip), vehicle: saline) was 100 % of control and 105 % of control.

`O=CC(CO)C(C=O)n1ncc2ccccc21` (configuration not stated) was tested, and the T/C (dose: 50.0 mg/kg/injection, schedule: Q01DX005 (ip), vehicle: water) was 112 % of control.

With `NNC(=O)Cc1ccccc1` the T/C [16] was 94 % of control and the T/C [17] was 89 % of control.

`O=NN(CCCl)C(=O)Nc1ccc(C(=O)O)cc1` was tested, and the T/C (dose: 1.5 mg/kg/injection, schedule: Q01DX Z (ip), vehicle: saline) was 171 % of control, the T/C (dose: 2.0 mg/kg/injection, schedule: Q01DX Z (ip), vehicle: saline) was 162 % of control and the T/C (dose: 2.5 mg/kg/injection, schedule: Q01DX001 (ip), vehicle: carboxymethylcellulose (CMC)) was 118 % of control and 124 % of control. For the same compound, the T/C (dose: 3.75 mg/kg/injection, schedule: Q## X001 (ip), vehicle: carboxymethylcellulose (CMC)) was 106 % of control, the T/C (dose: 4.5 mg/kg/injection, schedule: Q01DX Z (ip), vehicle: carboxymethylcellulose (CMC)) was 151 % of control and the T/C (dose: 5.0 mg/kg/injection, schedule: Q01DX001 (ip), vehicle: carboxymethylcellulose (CMC)) was 153 % of control and 182 % of control. The T/C (dose: 9.0 mg/kg/injection, schedule: Q01DX Z (ip), vehicle: carboxymethylcellulose (CMC)) was 117 % of control, the T/C (dose: 15.0 mg/kg/injection, schedule: Q01DX001 (ip), vehicle: carboxymethylcellulose (CMC)) was 151 % of control and 168 % of control and 190 % of control and the T/C (dose: 15.0 mg/kg/injection, schedule: Q## X001 (ip), vehicle: carboxymethylcellulose (CMC)) was 152 % of control. The T/C (dose: 20.0 mg/kg/injection, schedule: Q01DX001 (ip), vehicle: carboxymethylcellulose (CMC)) was 152 % of control, the T/C (dose: 30.0 mg/kg/injection, schedule: Q01DX001 (ip), vehicle: carboxymethylcellulose (CMC)) was 218 % of control and 227 % of control and the T/C (dose: 30.0 mg/kg/injection, schedule: Q## X001 (ip), vehicle: carboxymethylcellulose (CMC)) was 191 % of control.

`NCC(=O)c1ccc(O)c(O)c1` was tested, and the T/C [3] was 101 % of control, the T/C [13] was 122 % of control and the T/C [16] was 97 % of control. The T/C (dose: 175.0 mg/kg/injection, schedule: Q01DX Z (ip), vehicle: methylcellulose (MC)) was 115 % of control, the T/C [4] was 93 % of control and the T/C [17] was 97 % of control. The T/C (dose: 260.0 mg/kg/injection, schedule: Q01DX Z (ip), vehicle: carboxymethylcellulose (CMC)) was 112 % of control, the T/C (dose: 260.0 mg/kg/injection, schedule: Q01DX Z (ip), vehicle: methylcellulose (MC)) was 121 % of control and the T/C (dose: 270.0 mg/kg/injection, schedule: Q01DX Z (ip), vehicle: methylcellulose (MC)) was 117 % of control. For the same compound, the T/C [5] was 104 % of control, the T/C [15] was 124 % of control and the T/C (dose: 400.0 mg/kg/injection, schedule: Q01DX Z (ip), vehicle: methylcellulose (MC)) was 112 % of control. For the same compound, the T/C [18] was 95 % of control, the T/C (dose: 600.0 mg/kg/injection, schedule: Q01DX Z (ip), vehicle: carboxymethylcellulose (CMC)) was 116 % of control and the T/C (dose: 600.0 mg/kg/injection, schedule: Q01DX Z (ip), vehicle: methylcellulose (MC)) was 114 % of control. For the same compound, the T/C (dose: 1344.0 mg/kg/injection, schedule: Q01DX Z (ip), vehicle: carboxymethylcellulose (CMC)) was 92 % of control.

With `O=C1c2ccccc2C(=O)C1N=Nc1ccccc1` the T/C [12] was 102 % of control, the T/C [3] was 100 % of control and the T/C [4] was 94 % of control. The T/C [5] was 96 % of control.

For `CCOC(=O)C(OCc1ccccc1)(C(=O)OCC)C(C)C`, the T/C [13] was 97 % of control, the T/C [16] was 96 % of control and the T/C [14] was 101 % of control. For the same compound, the T/C [17] was 102 % of control, the T/C [15] was 106 % of control and the T/C [18] was 108 % of control.

With `CC(C)(C)NC(=O)Oc1ccc(-c2ccccc2)cc1Cl` the T/C [6] was 95 % of control, the T/C [7] was 100 % of control and the T/C [8] was 100 % of control.
